The source of these data is paper PMC5518105, “Identification and characterization of the antiplasmodial activity of Hsp90 inhibitors” (Malaria Journal, 2017).

For one data set, the target named is P. falciparum Grp94 (Plasmodium falciparum, UniProt Q8I0V4). The experiment in a line: biochemical. The data set is classed as binding. The procedure:
(§1) Full-length human recombinant HSP90α was purchased (Cayman Chemicals, MI), while the malaria recombinant parasite proteins were generated according to the following protocol. […] Growth at 37 °C continued until the OD600 reached ~1.0, whereupon the temperature was lowered to 18 °C and protein expression was induced by the addition of 1 mM isopropyl β-D-thiogalactopyranoside (IPTG). Overnight post-induction cells were collected by centrifugation and resuspended in binding buffer [50 mM Hepes pH 7.5, 500 mM NaCl, 1 mM benzamidine, and 1 mM phenylmethanesulfonyl fluoride (PMSF)]. The cells were lysed by adding chemical lysis buffer (2% CHAPS, 0.1 mg/mL lysozyme and 0.5 U/mL benzonase), the lysate was clarified by centrifugation. The supernatant was loaded on to a nickel-nitrilotriacetic acid column pre-equilibrated with binding buffer (50 mM Hepes pH 7.5, 500 mM NaCl). Following a wash step with binding buffer containing 5 mM imidazole, the bound protein was eluted with elution buffer (50 mM Hepes pH 7.5, 500 mM NaCl, 250 mM imidazole). The eluate was then loaded on to a 16/60 Superdex 200 size exclusion column pre-equilibrated with 50 mM Hepes pH 7.5 and 500 mM NaCl. Target protein-containing fractions were pooled and concentrated using centrifugal filter units (Amicon). The final protein products and samples for different steps in the purification procedures were evaluated in SDS-Page gels.
(§2) SPR measurements were performed on Biacore T200 instrument (GE Healthcare) at 25 °C. Purified P. falciparum Hsp90 and PfGRP94 N-terminal domain, and full-length human Hsp90α were immobilized on a CM5 sensorchip using NHS/EDC coupling following the manufacturer protocol to a level of <10,000 RUs, a reference surfaces without immobilized proteins served as a control for nonspecific binding and refractive index changes. Seven different concentrations of the ligands between 0.4 nM and 1 mM, were injected in triplicate over the sensor chip at 30 μL/min in random order. The running buffer was 10 mM HEPES, pH 7.4, 150 mM NaCl, 0.005% P20, 1% DMSO and 2 mM MgCl2. Buffer alone injections were used as blanks. The sensor surface was regenerated between injections with a short injection of a buffer 10 mM HEPES, pH 7.4, 150 mM NaCl, 0.005% P20 and 3 mM EDTA. The Biacore responses recorded during the 30 s of the injection were used to estimate the association constant (k on) and the 300 s after the injection were used to estimate the dissociation constant (k off). All kinetic constants were estimated using double subtracted sensorgrams using BiaEvaluation Software (GE Healthcare), the kinetic constants were used to calculate the dissociation constant (K d).

The next data set concerns the target P. falciparum Hsp90 (Plasmodium falciparum, UniProt Q8IC05). The experiment in a line: biochemical. The data set is classed as binding. The procedure:
as §1, §2

Another data set deals with T1, human Hsp90α (Homo sapiens, UniProt P07900).
T1 construct: Full-length human recombinant HSP90α was purchased; purchased Cayman Chemicals, MI
The experiment in a line: Biacore SPR analysis, full-length human Hsp90α. Conditions: SPR, 25 °C. The data set is classed as binding. The procedure:
as §1
as §2, with “Seven different concentrations of the ligands between 0.4 nM and 1 mM, were injected in triplicate over the sensor chip at 30 μL/min in random order.” left out
Background: In SPR one partner is held on a chip, and binding of the other changes the refractive index at the surface.

In data set [1] the test system is P. falciparum 3D7. Put plainly: Recrudescence assay, 3D7. It counts as cell-based, Plasmodium falciparum. The settings on record: for recovery time in combination with DHA vs DHA alone: 3D7, 48 h, two concentrations plus DHA 100 nM; for delay of culture recovery vs untreated control (cytocidal activity): 3D7, 48 h exposure, 17-AAG 1.5-6 µM, 17-DMAG 0.3-1.2 µM, NVP-AUY922 0.18-0.72 µM. The method, then: (§3) The assay is a modification of the previously reported bulk recrudescence assay. […] […] After drug exposure, the medium containing the drug was removed and the cultures were washed twice with compound-free media, and resuspended in RPMI to adjust haematocrit to 5%. The medium was changed every day and red blood cells were added every 2 days to adjust the haematocrit. The cultures were monitored daily until they reached 10% parasitaemia, which represented the end point of the experiment. Culture parasitaemia was determined by scoring >2000 erythrocytes in Giemsa-stained thin blood films as parasitized or not. The median number of days to reach this level of parasitaemia was reported for all the experiments. All experiments were conducted in triplicate; each replica was conducted on different days. The differences in the recovery times between control cultures to those exposed to Hsp90 inhibitors were analysed using the non-parametric statistic Kruskal–Wallis test. If the overall test was significant then Dunn’s multiple comparison tests were used to identify significant differences among pair comparisons. The same statistical analysis was applied when comparing P. falciparum cultures exposed to DHA alone versus DHA in combination with Hsp90 inhibitors. […] The statistical analyses were performed with the software Prism v6 (GraphPad Software, San Diego, CA).

Data set [2] relates to P. falciparum W2. Put plainly: Recrudescence assay, W2. It counts as cell-based, Plasmodium falciparum. The settings on record: for recovery time in combination with DHA vs DHA alone: W2, 48 h, two concentrations plus DHA 100 nM; for delay of culture recovery vs untreated control (cytocidal activity): W2, 48 h exposure, 17-AAG 1.5-6 µM, 17-DMAG 0.3-1.2 µM, NVP-AUY922 0.18-0.72 µM. The method, then: as §3

Data set [3] concerns P. falciparum 3D7. The experiment in a line: Parasite stage specific effect, 3D7. The data set is classed as cell-based, Plasmodium falciparum. The settings on record: 3D7, 24 h; 17-DMAG 1.2 µM, NVP-AUY922 0.72 µM. The procedure: (§4) Synchronized P. falciparum cultures were used to determine the susceptibility of different parasite stages to Hsp90 inhibitors. Three synchronized cultures per strain, with a majority of the parasites in the ring (0–26 h post red blood cell infection), trophozoite (26–38 h) or schizont (38–48 h) stages respectively (Fig. 3). […] The cultures were exposed to one concentration of the Hsp90 inhibitor for 24 h. […] For each three exposed the cultures and the control for both strains 3D7 and W2, the parasitaemia and the developmental stage of the parasites were recorded. Before and after drug exposure, Giemsa-stained blood smears were scored by microscopy examination counting 100 infected erythrocytes per culture, and the proportion of each developmental stage was calculated.

Data set [4] has as its system P. falciparum W2. The experiment in a line: Parasite stage specific effect, W2. It counts as cell-based, Plasmodium falciparum. Conditions: W2, 24 h; 17-DMAG 1.2 µM, NVP-AUY922 0.72 µM. The procedure:
as §4

The conditions of data set [5]: mouse, in vivo; cited from earlier work.
Data set [6] deals with Primary normal human lung fibroblasts (NHLFs). Put plainly: Drug cytotoxicity assay (MTT). The settings on record: 24 h; for IC50: Homo sapiens, Fibroblast, read-out: IC50 against human cells.
Description: Primary normal human lung fibroblasts (NHLFs) were seeded on 24-well plates and cultured in FGM-2 media (LONZA, Basel, Switzerland) until they reached 80% confluency. […] Briefly, 50 µL of MTT dye was added into the media and the cells were returned to the incubator for 3 h. Then 500 µL of solubilization solution was added to dissolve the MTT formazan crystals. […] The drug cytotoxicity assay was performed in triplicate.
Data set [7] has as its system P. falciparum chloroquine resistant W2. Put plainly: Growth inhibition assay (SYBR Green I), W2. The settings on record: W2, 72 h; for IC50: synchronized ring culture.
Description: (§5) A 50% suspension of non-infected O positive erythrocytes was added every 2 days to adjust haematocrit to 5%. Parasite cultures were maintained at 37 °C in 5% O2 and 5% CO2 atmosphere with daily changes of culture media.
(§6) A synchronized P. falciparum culture, with over 80% ring forms, was used in the growth inhibition assay. […] A 190 μL aliquot of parasite culture was dispensed per well to microplates that were pre-dispensed with the compounds at various dilutions. […] Dilutions of Hsp90 inhibitors and DHA were prepared in water with a final concentration of DMSO below 0.05% (v/v).
(§7) The microplates were incubated at 37 °C in a controlled atmosphere (5% O2, 5% CO2 Nitrogen balanced) for 72 h. After incubation, the plates were subject to a freeze–thaw cycle (−80 °C) and the parasite growth was quantified by the SYBR Green I method as previously described [33]. Briefly, 100 µL of homogenized parasite culture was transferred into 96-well black plates. […] The plates were incubated at room temperature in darkness for 1 h.
(§8) Growth inhibition experiments were conducted at least three times per compound (biological replicates, n ≥ 3). The IC50 differences for each inhibitor between the two P. falciparum strains were compared with a t test.
In data set [8] the test system is P. falciparum chloroquine sensitive 3D7. Put plainly: Growth inhibition assay (SYBR Green I), 3D7. The settings on record: 3D7, 72 h; for IC50: synchronized ring culture.
Description: as §5, §6, §7, §8
Details of data set [9]: method as in PMID 18020435. The settings on record: mice, 50 mg/kg; read-out: Cmax in plasma; cited from earlier work.
[10] abbreviates: SPR, 25 °C, calculated from kinetic constants, read-out: Kd.

Structures are written as SMILES. Entries after “also recorded” stand apart in the source; their conditions may differ. Read-outs that look alike come from different tables or passages of the source. Bounds are passed on as bounds.

P. falciparum Grp94, sequence (Q8I0V4 entry or part of it): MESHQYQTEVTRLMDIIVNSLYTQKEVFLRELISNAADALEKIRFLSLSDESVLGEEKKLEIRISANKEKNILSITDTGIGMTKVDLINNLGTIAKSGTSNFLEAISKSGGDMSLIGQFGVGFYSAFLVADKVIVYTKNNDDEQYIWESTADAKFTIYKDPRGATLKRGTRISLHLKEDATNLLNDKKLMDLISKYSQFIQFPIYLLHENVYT
P. falciparum Hsp90, sequence (Q8IC05 entry or part of it): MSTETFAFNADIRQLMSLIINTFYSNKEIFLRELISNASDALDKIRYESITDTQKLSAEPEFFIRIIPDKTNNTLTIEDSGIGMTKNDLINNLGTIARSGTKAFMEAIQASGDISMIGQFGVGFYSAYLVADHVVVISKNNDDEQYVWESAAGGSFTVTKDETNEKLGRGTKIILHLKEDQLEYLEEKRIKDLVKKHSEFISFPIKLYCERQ

Broadly, the Kd is the free concentration of one partner at which half of the binding sites on the other are occupied at equilibrium, for simple one-to-one binding. By IC50 is commonly meant the point on the concentration scale where inhibition reaches its midpoint. In general, IC90 refers to the concentration at which the effect reaches the 90% level. Low values mean an effect from little substance, high ones a need for much substance. In the case of `CO[C@H]1/C=C\C=C(/C)C(=O)NC2=CC(=O)C(NCCN(C)C)=C(C[C@@H](C)C[C@H](OC)[C@H](O)[C@@H](C)/C=C(\C)[C@@H]1OC(N)=O)C2=O` [17-DMAG, 17-(dimethylaminoethylamino)-17-demethoxygeldanamycin], the ka at P. falciparum Grp94 (SPR, 25 °C) is listed as 53,000 1/Ms; on P. falciparum Hsp90 (SPR, 25 °C), 208,000 1/Ms. Besides, the kd came to 0.001 s⁻¹ at P. falciparum Grp94 (SPR, 25 °C); 0.001 s⁻¹ on P. falciparum Hsp90 (SPR, 25 °C); 0.007 s⁻¹ at human Hsp90α. Moreover, the Kd at P. falciparum Grp94 (setting [10]) was 23 nM; at P. falciparum Hsp90 (setting [10]) it was 8 nM; at P. falciparum Hsp90 (read-out: Kd against the parasite chaperone), 8.23 nM. Also, the “recovery time in combination with DHA vs DHA alone” value is “more effective in combination against P. falciparum 3D7 but only at one of the lowest concentrations” in the data set with P. falciparum 3D7 [1] and “not significantly more toxic to W2” in the data set on P. falciparum W2 [2]. In addition, the “delay of culture recovery vs untreated control (cytocidal activity)” value in the data set with P. falciparum 3D7 [1] and with P. falciparum W2 [2] was “only significantly different from the control parasite cultures when assayed at a concentration ~8 times its average IC50; also recorded: strong cytotoxic activities” each time. Also, the “effect against all parasite stages (ring, trophozoite, schizont)” value with P. falciparum 3D7 [3] and with P. falciparum W2 [4] was “effective against all parasite stages” throughout. Moreover, the tolerability result in data set [5] is “well tolerated without any visible side effects”. In addition, the IC50 in data set [6] was greater than 10000 nM; in data set [7] (Plasmodium falciparum), 169 nM; in [7] it was 170 nM; in [8] it was 118 nM; in data set [8] (Plasmodium falciparum), 118 nM. Further, the “growth inhibition for the human cells” value in data set [6] (NHLF, 0.5 to 10 µM) was no more than 25%. Besides, the “growth of host cells compared to no drug controls” value in data set [6] (NHLF, 0.5 to 10 µM, t test) is recorded as “only the highest concentration (10 µM) was significantly different from the controls”. Besides, the values for the IC90 in data set [7] (Plasmodium falciparum) and in data set [8] (Plasmodium falciparum) were 542 nM and 287 nM, respectively.

As usually defined, the Cmax is the peak of the concentration-time curve. `CCNC(=O)c1noc(-c2cc(C(C)C)c(O)cc2O)c1-c1ccc(CN2CCOCC2)cc1` [NVP-AUY922]: the Kd turned out to be 9 nM at P. falciparum Grp94, 13 nM at P. falciparum Hsp90 (Kd) and 13.2 nM at P. falciparum Hsp90 (Kd against the parasite chaperone). Besides, the ka at P. falciparum Grp94 is 438,000 1/Ms; on P. falciparum Hsp90, 107,000 1/Ms. In addition, the kd was found to be 0.004 s⁻¹ on P. falciparum Grp94 and 0.001 s⁻¹ on P. falciparum Hsp90. Moreover, the “recovery time in combination with DHA vs DHA alone” value in the data set with P. falciparum 3D7 [1] is “increase in the time required to reach 10% parasitaemia”; with P. falciparum W2 [2], “only significant in the case of P. falciparum W2”. For the same molecule, the “delay of culture recovery vs untreated control (cytocidal activity)” value in the data set with P. falciparum 3D7 [1] is “(0.36 and 0.72 µM) significantly delayed the parasite recovery; also recorded: strong cytotoxic activities”; in the data set on P. falciparum W2 [2], “(0.36 and 0.72 µM) significantly delayed the parasite recovery; also recorded: strong cytotoxic activities”. The “effect against all parasite stages (ring, trophozoite, schizont)” value with P. falciparum 3D7 [3] and in the data set with P. falciparum W2 [4] was “effective against all parasite stages” in each case. For the same molecule, the Cmax in data set [9] is 35 µM. The IC50 in data set [6] is greater than 10000 nM; in data set [7] (Plasmodium falciparum), roughly 75 nM; in data set [7] it was 75.4 nM; in [8], 75.5 nM; in data set [8] (Plasmodium falciparum), roughly 75 nM. Moreover, the “growth inhibition for the human cells” value in data set [6] (NHLF, 0.5 to 10 µM) is recorded as no more than 25%. The IC90 is 460 nM in data set [7] (Plasmodium falciparum) and 646 nM in data set [8] (Plasmodium falciparum).
